Assay results published in patent publication US20150133297A1, “NEW ANTIFUNGAL COMPOSITIONS” (DSM IP ASSETS B.V., priority 2012, published 2015).

System: Botrytis cinerea
Test: Treatment of sweet peppers (Example 10)
Type: in vivo
Details: 20° C., 150 ppm spiroxamine or both
Protocol: Ten fresh, organic sweet peppers were used per treatment. Each sweet pepper was soaked in a 180 ppm hypochlorite solution for 10 minutes, then rinsed thoroughly with fresh tap water and dried. The peel of each disinfected sweet pepper was wounded once using a cork borer according to the method described by de Lapeyre de Bellaire and Dubois (1987). Subsequently, each wound was inoculated with 10 μl of a Botrytis cinerea suspension containing 1×10^5 of spores/ml. After incubation for 3 hours at 20° C., each wound and the skin area of 0.5 cm around the wound was treated with in total 75 μl of a freshly prepared aqueous antifungal composition comprising either 200 ppm natamycin (DSM Food Specialties, Delft, The Netherlands), 150 ppm spiroxamine or both. […]
The treated sweet peppers were incubated in a closed box in the dark at 20° C. and assessed on mould growth during incubation. The antifungal activity (in %) of the individual and combined active ingredients was determined by calculating the reduction in mould growth observed on the sweet peppers treated with the antifungal composition in comparison to the mould growth on the sweet peppers treated with the control composition according to the Colby method (Colby, 1967) as described in Example 5.

## CCCN(CC)CC1COC2(CCC(C(C)(C)C)CC2)O1 (centres unmarked) [Spiroxamine, spiroxamine]
Day 12, 200 ppm natamycin
  Observed antifungal activity O (%): 0%
Day 13, 200 ppm natamycin
  Observed antifungal activity O (%): 0%
